For the data set, the system named is CCRIS mutagenicity, Ames/micronucleus/aberration tests. As to the kind of experiment: CCRIS mutagenicity studies.
The mark [1] stands for this setting: Test System: AMES SALMONELLA TYPHIMURIUM, Strain/Indicator: TA98, Metabolic Activation: NONE, Method: STANDARD PLATE.
The mark [2] stands for this setting: Test System: AMES SALMONELLA TYPHIMURIUM, Strain/Indicator: TA98, Metabolic Activation: RAT, LIVER, S-9, AROCLOR 1254, Method: STANDARD PLATE.
Where [3] appears, read: Test System: AMES SALMONELLA TYPHIMURIUM, Strain/Indicator: TA100, Metabolic Activation: NONE, Method: PREINCUBATION
The mark [4] stands for this setting: Test System: AMES SALMONELLA TYPHIMURIUM, Strain/Indicator: TA100, Metabolic Activation: NONE, Method: STANDARD PLATE.

The source made the active and inactive calls. The rule behind the calls is not given here.

For the compound `Oc1c(Cl)c(Cl)c(Cl)c(Cl)c1Cl`, the mutagenic call (End Point: IN VITRO CHROMOSOMAL ABERRATIONS, Test System: CHINESE HAMSTER OVARY CELLS, Metabolic Activation: NONE) is “inactive; negative”; the mutagenic call (Test System: AMES SALMONELLA TYPHIMURIUM, Strain/Indicator: TA97A, Metabolic Activation: NONE, Method: STANDARD PLATE) was “inactive; negative”; the mutagenic call (Test System: AMES SALMONELLA TYPHIMURIUM, Strain/Indicator: TA97A, Metabolic Activation: RAT LIVER S-9, AROCLOR 1254, Method: STANDARD PLATE) is “inactive; negative”; the mutagenic call (Test System: AMES SALMONELLA TYPHIMURIUM, Strain/Indicator: TA98, Metabolic Activation: HAMSTER, LIVER, S-9, AROCLOR 1254, Method: PREINCUBATION) was “inactive; negative”; the mutagenic call (Test System: AMES SALMONELLA TYPHIMURIUM, Strain/Indicator: TA98, Metabolic Activation: NONE, Method: PREINCUBATION) is “inactive; negative”; the mutagenic call under setting [1] was “inactive; negative”. Moreover, the mutagenic call by setting is: (Test System: AMES SALMONELLA TYPHIMURIUM, Strain/Indicator: TA98, Metabolic Activation: RAT LIVER S-9, AROCLOR 1254, Method: STANDARD PLATE) “inactive; negative”; (Test System: AMES SALMONELLA TYPHIMURIUM, Strain/Indicator: TA98, Metabolic Activation: RAT, LIVER, S-9, AROCLOR 1254, Method: PREINCUBATION) “inactive; negative”; under setting [2], “active; positive”; (Test System: AMES SALMONELLA TYPHIMURIUM, Strain/Indicator: TA100, Metabolic Activation: HAMSTER, LIVER, S-9, AROCLOR 1254, Method: PREINCUBATION) “inactive; negative”; under setting [3], “inactive; negative”; under setting [4], “inactive; negative”. The mutagenic call (Test System: AMES SALMONELLA TYPHIMURIUM, Strain/Indicator: TA100, Metabolic Activation: RAT LIVER S-9, AROCLOR 1254, Method: STANDARD PLATE) is “inactive; negative”; the mutagenic call (Test System: AMES SALMONELLA TYPHIMURIUM, Strain/Indicator: TA100, Metabolic Activation: RAT, LIVER, S-9, AROCLOR 1254, Method: PREINCUBATION) was “inactive; negative”; the mutagenic call (Test System: AMES SALMONELLA TYPHIMURIUM, Strain/Indicator: TA1535, Metabolic Activation: HAMSTER, LIVER, S-9, AROCLOR 1254, Method: PREINCUBATION) was “inactive; negative”; the mutagenic call (Test System: AMES SALMONELLA TYPHIMURIUM, Strain/Indicator: TA1535, Metabolic Activation: NONE, Method: PREINCUBATION) was “inactive; negative”; the mutagenic call (Test System: AMES SALMONELLA TYPHIMURIUM, Strain/Indicator: TA1535, Metabolic Activation: RAT, LIVER, S-9, AROCLOR 1254, Method: PREINCUBATION) was “inactive; negative”; the mutagenic call (Test System: AMES SALMONELLA TYPHIMURIUM, Strain/Indicator: TA1537, Metabolic Activation: HAMSTER, LIVER, S-9, AROCLOR 1254, Method: PREINCUBATION) is “inactive; negative”. Further, the mutagenic call (Test System: AMES SALMONELLA TYPHIMURIUM, Strain/Indicator: TA1537, Metabolic Activation: NONE, Method: PREINCUBATION) is “inactive; negative”; the mutagenic call (Test System: AMES SALMONELLA TYPHIMURIUM, Strain/Indicator: TA1537, Metabolic Activation: RAT, LIVER, S-9, AROCLOR 1254, Method: PREINCUBATION) was “inactive; negative”; the mutagenic call (Test System: CHINESE HAMSTER V-79, Strain/Indicator: V-79/6-THIOGUANINE, Metabolic Activation: NONE, Method: STANDARD PLATE) is “inactive; negative”; the mutagenic call (Test System: CHINESE HAMSTER V-79, Strain/Indicator: V-79/6-THIOGUANINE, Metabolic Activation: PRIMARY RAT HEPATOCYTES, Method: STANDARD PLATE) was “inactive; negative”.
Consider `Cc1ccc2cc3c(c4c2c1CC4)[C@@H](O)[C@@H](O)c1ccccc1-3`, for which the mutagenic call (Test System: CHINESE HAMSTER V-79, Strain/Indicator: V-79/8-AZAGUANINE, Metabolic Activation: NONE, Method: STANDARD PLATE) was “active; positive”.
For the compound `O=C(N=c1sn(C(=O)c2ccccc2)c2ccc([N+](=O)[O-])cc12)c1ccccc1`, the mutagenic call (Test System: AMES SALMONELLA TYPHIMURIUM, Strain/Indicator: TA100, Metabolic Activation: S-9, Method: STANDARD PLATE) is “active; positive”.
`CCCOS(=O)(=O)c1ccc(C)cc1`: the mutagenic call (End Point: IN VITRO MICRONUCLEUS, Test System: MOUSE LYMPHOMA L5178Y CELLS, Metabolic Activation: NONE) is “inactive; negative; positive results only at highly excessively cytotoxic doses”; the mutagenic call (End Point: IN VITRO MICRONUCLEUS, Test System: MOUSE LYMPHOMA L5178Y CELLS, Metabolic Activation: RAT, LIVER, S-9) is “inactive; negative”; the mutagenic call (End Point: In vitro micronucleus, Test System: Chinese Hamster Ovary (CHO-WBL) cells, Metabolic Activation: None) was “inactive; negative”; the mutagenic call under setting [4] was “active; positive”; the mutagenic call (Test System: AMES SALMONELLA TYPHIMURIUM, Strain/Indicator: TA100, Metabolic Activation: RAT, LIVER, S-9, Method: STANDARD PLATE) was “active; positive”.
Take `CC1(c2ccc(Br)cc2)CO1` (stereo unspecified): the mutagenic call under setting [3] was “inactive; negative”.
Take `CC(C)C1=CC2=CC[C@@H]3[C@](C)(CCC[C@@]3(C)C(=O)O)[C@H]2CC1`: the mutagenic call runs as follows: (Test System: AMES SALMONELLA TYPHIMURIUM, Strain/Indicator: TA98, Metabolic Activation: HAMSTER, LIVER, S-9, AROCLOR 1254, Method: STANDARD PLATE) “inactive; negative”; under setting [1], “inactive; negative”; under setting [2], “inactive; negative”; (Test System: AMES SALMONELLA TYPHIMURIUM, Strain/Indicator: TA100, Metabolic Activation: HAMSTER, LIVER, S-9, AROCLOR 1254, Method: STANDARD PLATE) “inactive; negative”; under setting [4], “inactive; negative”; (Test System: AMES SALMONELLA TYPHIMURIUM, Strain/Indicator: TA100, Metabolic Activation: RAT, LIVER, S-9, AROCLOR 1254, Method: STANDARD PLATE) “inactive; negative”. Besides, the mutagenic call was “inactive; negative” (Test System: AMES SALMONELLA TYPHIMURIUM, Strain/Indicator: TA1535, Metabolic Activation: HAMSTER, LIVER, S-9, AROCLOR 1254, Method: STANDARD PLATE); “inactive; negative” (Test System: AMES SALMONELLA TYPHIMURIUM, Strain/Indicator: TA1535, Metabolic Activation: NONE, Method: STANDARD PLATE); “inactive; negative” (Test System: AMES SALMONELLA TYPHIMURIUM, Strain/Indicator: TA1535, Metabolic Activation: RAT, LIVER, S-9, AROCLOR 1254, Method: STANDARD PLATE); “inactive; negative” (Test System: AMES SALMONELLA TYPHIMURIUM, Strain/Indicator: TA1537, Metabolic Activation: HAMSTER, LIVER, S-9, AROCLOR 1254, Method: STANDARD PLATE); “inactive; negative” (Test System: AMES SALMONELLA TYPHIMURIUM, Strain/Indicator: TA1537, Metabolic Activation: NONE, Method: STANDARD PLATE); “inactive; negative” (Test System: AMES SALMONELLA TYPHIMURIUM, Strain/Indicator: TA1537, Metabolic Activation: RAT, LIVER, S-9, AROCLOR 1254, Method: STANDARD PLATE). Besides, the mutagenic call was “inactive; negative” (Test System: AMES SALMONELLA TYPHIMURIUM, Strain/Indicator: TA1538, Metabolic Activation: HAMSTER, LIVER, S-9, AROCLOR 1254, Method: STANDARD PLATE); “inactive; negative” (Test System: AMES SALMONELLA TYPHIMURIUM, Strain/Indicator: TA1538, Metabolic Activation: NONE, Method: STANDARD PLATE); “inactive; negative” (Test System: AMES SALMONELLA TYPHIMURIUM, Strain/Indicator: TA1538, Metabolic Activation: RAT, LIVER, S-9, AROCLOR 1254, Method: STANDARD PLATE); “active; positive. reevaluation of results: positive” (Test System: MOUSE LYMPHOMA, Strain/Indicator: L5178Y (TK+/TK-), Metabolic Activation: NONE, Method: SUSPENSION/PLATE); “inactive; negative. reevaluation of results: negative” (Test System: MOUSE LYMPHOMA, Strain/Indicator: L5178Y (TK+/TK-), Metabolic Activation: RAT, LIVER, S-9, AROCLOR 1254, Method: SUSPENSION/PLATE).
On to `CCCCCC(=O)OCC`, for which the mutagenic call (Test System: AMES SALMONELLA TYPHIMURIUM, Strain/Indicator: TA97, Metabolic Activation: NONE, Method: PREINCUBATION) is “inactive; negative”; the mutagenic call (Test System: AMES SALMONELLA TYPHIMURIUM, Strain/Indicator: TA97, Metabolic Activation: RAT, LIVER, S-9, AROCLOR 1254, Method: PREINCUBATION) is “inactive; negative”; the mutagenic call (Test System: AMES SALMONELLA TYPHIMURIUM, Strain/Indicator: TA102, Metabolic Activation: NONE, Method: PREINCUBATION) was “inactive; negative”; the mutagenic call (Test System: AMES SALMONELLA TYPHIMURIUM, Strain/Indicator: TA102, Metabolic Activation: RAT, LIVER, S-9, AROCLOR 1254, Method: PREINCUBATION) is “inactive; negative”.
